{"source": "ChEMBL document CHEMBL1154128", "about": "“Characterization of the microbial community and polyketide biosynthetic potential in the palmerolide-producing tunicate Synoicum adareanum” (2008)", "tested_on": "UACC-62", "assay": "Cytotoxicity against human UACC62 cells", "type": "functional", "conditions": "read-out: LC50 (the source's name)"}
{"smiles": "CC(C)=CC(=O)N/C=C/C(C)=C/[C@@H](C)[C@H]1C/C(C)=C/C=C/CC[C@H](OC(N)=O)[C@@H](O)/C=C/[C@@H](O)CCC/C=C/C(=O)O1", "note": "[PALMEROLIDE A]", "values": [{"measurement": "CC50", "result": 18, "unit": "nM"}]}
